Like-named read-outs stand apart in the source and are kept apart here.
What was measured:
Type in all cases: cell-based
RSV strain A2 = test: RSV HEp-2 EC50 (infectious cytopathic cell protection assay); conditions: HEp-2 cells, RSV A2, 4 days, read-out: RSV HEp-2 EC50
Procedure, shortened: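 Percent inhibition of RSV-induced cytopathic effect came from remaining cell viability (CellTiter-Glo luminescence) after 4 days at 37° C. Compounds in 3-fold serial dilutions were exposed to an infectious mix of titered A2 virus and HEp-2 cells at 50,000/ml, with 0% and 100% inhibition control standards.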

HRV16 = HRV16 HELA EC50 (cytopathic effect in H1-HeLa cells)
Procedure, shortened: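 Read-out is luminescent cell viability (CellTiter-Glo) after 96 h of infection at 33 °C, scaled between uninfected and infected-untreated wells. Before infection with titrated virus, compounds went onto H1-HeLa cells as triplicate 3-fold dilution series.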

[1] = tested on: Dengue serotype 2 New Guinea C (NGC) strain; test: DENV-2 Huh-7 EC50 (qPCR in Huh7 cells)
Description: Huh7 (Human hepatocarcinoma 7) cells were maintained in 10% FCS-containing DMEM complete media. On the day of the assay, cells were trypsinized (0.1% Trypsin-EDTA), washed and infected for 2 hours in serum-free DMEM with Dengue serotype 2 New Guinea C (NGC) strain at MOI=0.1 with gentle agitation at 37° C. After 2 hours, cells were washed with serum-free media and suspended in 10% FCS-containing DMEM (Gibco, supplemented with sodium pyruvate, NEAA, Penicillin-Streptomycin). 10^5 cells were plated in triplicate in 96-well plates with compounds dispensed at graded doses (Hewlett-Packard D300 Digital Dispenser). All wells were normalized to 0.25% DMSO. At 48 hours, cells were washed with 1×PBS and all supernatants removed. Total RNA was extracted using RNEasy 96 plates (Qiagen) and used to generate first-strand cDNA using XLT cDNA 5×Supermix (QuantaBio). cDNA was used as a template in a Taqman qPCR duplex reaction specific to DENV2 viral and GAPDH gene expression. EC50 values were determined using Prism Graphpad software, with normalization to a positive control and no compound negative control wells.

RSV A2 = test: RSV NHBE EC50 (RSV A2 antiviral assay in normal human bronchial epithelial cells); conditions: NHBE cells, RSV A2, 4 days, read-out: RSV NHBE EC50
DENV2 replicon = test: DENV-2 Huh-7 Rep EC50 (replicon luminescence); conditions: Huh-7 replicon cells, 48 hours, read-out: DENV-2 Huh-7 Rep EC50
Procedure, shortened: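 EC50 derived from luminescence dose-response, normalised to DMSO-only 0% inhibition wells, after 1.5 h with EnduRen substrate. Compounds were first exposed for 48 h at 37° C to DENV2 replicon Huh-7 cells (5,000/well).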

HCV replicon 1B = test: HCV Rep 1B EC50 (replicon luciferase)
Description: (§1) Compounds were serially diluted in ten steps of 1:3 dilutions in 384-well plates. All serial dilutions were performed in four replicates per compound within the same 384-well plate. […] To each well of a black polystyrene 384-well plate (Greiner Bio-one, Monroe, NC), 90 μL of cell culture medium (without Geneticin) containing 2000 suspended HCV replicon cells was added with a Biotek μFlow workstation. For compound transfer into cell culture plates, 0.4 μL of compound solution from the compound serial dilution plate was transferred to the cell culture plate on a Biomek FX workstation. The DMSO concentration in the final assay wells was 0.44%. The plates were incubated for 3 days at 37° C. with 5% CO2 and 85% humidity. The HCV replicon assay was a multiplex assay, able to assess both cytotoxicity and antireplicon activity from the same well. The CC50 assay was performed first. The media in the 384-well cell culture plate was aspirated, and the wells were washed four times with 100 μL of PBS each, using a Biotek ELX405 plate washer. A volume of 50 μL of a solution containing 400 nM calcein AM (Anaspec, Fremont, CA) in 1×PBS was added to each well of the plate with a Biotek μFlow workstation. The plate was incubated for 30 min at room temperature before the fluorescence signal (excitation 490 nm, emission 520 nm) was measured with a Perkin-Elmer Envision plate reader. The EC50 assay was performed in the same wells as the CC50 assay. The calcein-PBS solution in the 384-well cell culture plate was aspirated with a Biotek ELX405 plate washer. A volume of 20 μL of Dual-Glo luciferase buffer (Promega, Madison, WI) was added to each well of the plate with a Biotek μFlow Workstation. The plate was incubated for 10 min at room temperature. A volume of 20 μL of a solution containing a 1:100 mixture of Dual-Glo Stop & Glo substrate (Promega, Madison, WI) and Dual-Glo Stop & Glo buffer (Promega, Madison, WI) was added to each well of the plate with a Biotek μFlow Workstation. The plate was then incubated at room temperature for 10 min before the luminescence signal was measured with a Perkin-Elmer Envision Plate Reader.

HCV replicon 2A = test: HCV Rep 2A EC50 (replicon luciferase)
Description: as §1

[2] = human respiratory syncytial virus, HEp-2, 96 h
[3] = 96 h, H1-HeLa cells, 33° C., read-out: HRV16 HELA EC50
[4] = Dengue virus, DENV2, Huh-7, 48 h
[5] = human respiratory syncytial virus, NHBE, 96 h
[6] = H1-HeLa cells, 96 h, 33° C.; read-out: HRV16 HELA EC50
[7] = replicon cells, 3 days, read-out: HCV Rep 1B EC50
[8] = replicon cells, 3 days, read-out: HCV Rep 2A EC50

| Structure (SMILES) | EC50 (DENV2 replicon; [4]) | EC50 (RSV strain A2) | EC50 (HRV16; [6]) | EC50 ([1]; 48 hours) | EC50 (RSV A2) | EC50 (DENV2 replicon) | further results |
| --- | --- | --- | --- | --- | --- | --- | --- |
| CC(C)(C)C(=O)OCCNP(=O)(OC[C@@]1(C#N)O[C@@H](c2ccc3c(N)ncnn23)[C@H](O)[C@@H]1O)Oc1ccccc1 (mixture of isomers) [Example 11, 2-(((((2R,3S,4R,5S)-5-(4-aminopyrrolo[2,1-f][1,2,4]triazin-7-yl)-2-cyano-3,4-dihydroxytetrahydrofuran-2-yl)methoxy)(phenoxy)phosphoryl)amino)ethyl pivalate] | > 50 µM | – | – | – | – | – | EC50 (RSV strain A2; [2]): 0.269 µM; EC50 (HRV16; [3]): 1.2 µM; EC50 [1, 4]: 3.5 µM; EC50 (RSV A2; [5]): 0.054 µM |
| C[C@H](NP(=O)(OC[C@@]1(C#N)O[C@@H](c2ccc3c(N)ncnn23)[C@H](O)[C@@H]1O)Oc1ccccc1)C(=O)OCC1CC1 (single isomer, unassigned) [Example 9] | – | 1.01 µM | 0.324 µM | 1.46 µM | 0.097 µM | > 50 µM | – |
| C[C@H](NP(=O)(OC[C@@]1(C#N)O[C@@H](c2ccc3c(N)ncnn23)[C@H](O)[C@@H]1O)Oc1ccccc1)C(=O)OCC1CC1 (single isomer, unassigned) [Example 10] | – | 0.191 µM | 0.583 µM | 2.79 µM | 0.421 µM | 17.9 µM | – |
| CC(NP(=O)(OCC1(C#N)OC(c2ccc3c(N)ncnn23)C(O)C1O)Oc1ccccc1)C(=O)OCC1CCC(C(F)(F)F)CC1 (single isomer, unassigned) [Example 27] | – | 1.3 µM | 3.16 µM | 5.68 µM | 0.018 µM | 82.2 µM | – |
| CC(NP(=O)(OCC1(C#N)OC(c2ccc3c(N)ncnn23)C(O)C1O)Oc1ccccc1)C(=O)OCC1CCC(C(F)(F)F)CC1 (single isomer, unassigned) [Example 28] | – | 0.238 µM | 0.59 µM | 2.16 µM | 0.053 µM | 29.6 µM | – |
| COCCCOC(=O)[C@H](C)NP(=O)(OC[C@@]1(C#N)O[C@@H](c2ccc3c(N)ncnn23)[C@H](O)[C@@H]1O)Oc1ccccc1 (single isomer, unassigned) [Example 59] | – | – | – | 4.65 µM | 0.111 µM | 56.5 µM | – |
| COCCCOC(=O)[C@H](C)NP(=O)(OC[C@@]1(C#N)O[C@@H](c2ccc3c(N)ncnn23)[C@H](O)[C@@H]1O)Oc1ccccc1 (single isomer, unassigned) [Example 60] | – | 0.583 µM | – | 6.82 µM | 0.361 µM | 41.3 µM | EC50 (HCV replicon 1B; [7]): 6.08 µM; EC50 (HCV replicon 2A; [8]): 10.8 µM |
| C[C@H](NP(=O)(OC[C@@]1(C#N)O[C@@H](c2ccc3c(N)ncnn23)[C@H](O)[C@@H]1O)Oc1ccccc1)C(=O)O[C@H]1CCOC1 (single isomer, unassigned) [Example 66] | > 100 µM | – | – | – | – | – | EC50 (HCV replicon 1B; Hepatitis C virus, 72 h, read-out: HCV Rep 1B EC50, replicon cells, 3 days): 14.9 µM; EC50 (HCV replicon 2A; Hepatitis C virus, 72 h, read-out: HCV Rep 2A EC50, replicon cells, 3 days): 21.8 µM |
| CC(NP(=O)(OCC1(C#N)OC(c2ccc3c(N)ncnn23)C(O)C1O)Oc1ccccc1)C(=O)OC1CCOC1 (single isomer, unassigned) [Example 69] | – | – | 7.33 µM | – | – | > 100 µM | EC50 (HCV replicon 1B; [7]): 25.3 µM; EC50 (HCV replicon 2A; [8]): 50.3 µM |
| CC(NP(=O)(OCC1(C#N)OC(c2ccc3c(N)ncnn23)C(O)C1O)Oc1ccccc1)C(=O)OC1CCOC1 (single isomer, unassigned) [Example 70] | – | – | 5.23 µM | – | – | > 100 µM | EC50 (HCV replicon 1B; [7]): 9.43 µM; EC50 (HCV replicon 2A; [8]): 32.7 µM |
| CCC(CC)COC(=O)[C@H](C)NP(=O)(N[C@@H](C)C(=O)OC1CCCCC1)OC[C@@]1(C#N)O[C@@H](c2ccc3c(N)ncnn23)[C@H](O)[C@@H]1O (single isomer, unassigned) [Example 227] | – | 0.614 µM | 4.94 µM | – | 0.126 µM | 39.4 µM | EC50 (HCV replicon 1B; [7]): 10.2 µM; EC50 (HCV replicon 2A; [8]): 4.76 µM |
| C[C@H](NP(=O)(OC[C@@]1(C#N)O[C@@H](c2ccc3c(N)ncnn23)[C@H](O)[C@@H]1O)Oc1ccccc1)C(=O)OCc1ccccc1 (stereo partly drawn) [Example 37, benzyl ((((2R,3S,4R,5S)-5-(4-aminopyrrolo[2,1-f][1,2,4]triazin-7-yl)-2-cyano-3,4-dihydroxytetrahydrofuran-2-yl)methoxy) (phenoxy)phosphoryl)-L-alaninate] | 6.7 µM | – | – | – | – | – | EC50 (RSV strain A2; [2]): 0.136 µM; EC50 (HRV16; [3]): 0.329 µM; EC50 [1, 4]: 1.51 µM; EC50 (RSV A2; [5]): 0.129 µM |
| C[C@H](N[P@@](=O)(OC[C@@]1(C#N)O[C@@H](c2ccc3c(N)ncnn23)[C@H](O)[C@@H]1O)Oc1ccccc1)C(=O)OCC1CCC1 [Example 119] | – | 0.539 µM | 0.247 µM | 4.28 µM | 0.12 µM | 31.1 µM | – |
| C[C@H](N[P@](=O)(OC[C@@]1(C#N)O[C@@H](c2ccc3c(N)ncnn23)[C@H](O)[C@@H]1O)Oc1ccccc1)C(=O)OCC1CCC1 [Example 120] | – | 0.101 µM | 0.295 µM | 0.798 µM | 0.104 µM | 7.46 µM | – |
| CCCCCCCCOC(=O)[C@H](C)NP(=O)(OC[C@@]1(C#N)O[C@@H](c2ccc3c(N)ncnn23)[C@H](O)[C@@H]1O)Oc1ccccc1 (stereo partly drawn) [Example 188, octyl ((((2R,3S,4R,5S)-5-(4-aminopyrrolo[2,1-f][1,2,4]triazin-7-yl)-2-cyano-3,4-dihydroxytetrahydrofuran-2-yl)methoxy)(phenoxy)phosphoryl)-L-alaninate] | 21.4 µM | – | – | – | – | – | EC50 (RSV strain A2; [2]): 0.186 µM; EC50 (HRV16; [3]): 0.429 µM; EC50 [1, 4]: 3.02 µM; EC50 (RSV A2; [5]): 0.038 µM |
| C[C@H](NP(=O)(OC[C@@]1(C#N)O[C@@H](c2ccc3c(N)ncnn23)[C@H](O)[C@@H]1O)Oc1ccccc1)C(=O)OCC(C)(C)C(F)(F)F (stereo partly drawn) [Example 260, 3,3,3-trifluoro-2,2-dimethylpropyl ((((2R,3S,4R,5S)-5-(4-aminopyrrolo[2,1-f][1,2,4]triazin-7-yl)-2-cyano-3,4-dihydroxytetrahydrofuran-2-yl)methoxy)(phenoxy)phosphoryl)-L-alaninate] | 9.95 µM | – | – | – | – | – | EC50 (RSV strain A2; [2]): 0.066 µM; EC50 [1, 4]: 0.682 µM |

Reference: patent US20230295201A1 (Gilead Sciences, Inc., priority 2020, published 2023)
